According to patent EP2739296B1, “PLANT MATERIAL FROM OXYDENDRUM ARBOREUM FOR COSMETIC USE” (Sederma, priority 2011, dated 2013):

Columns and labels:
Format in all cases: cell-based
Human melanocytes = experiment: Melanin synthesis in human melanocytes; settings: positive control, concentration not given; 5 days of culture; n=5; p<0.01
Experimental: Human melanocytes were seeded in 24-well plates. After 24 h of attachment, the cells are in contact with the test products. After 5 days of culture, the layers are rinsed, the total melanins are extracted in sodium hydroxide and assayed spectrophotometrically at 490 nm. For tyrosinase, an identical culture protocol is followed and then the enzyme is extracted from the cells and DOPA oxidase activity is measured spectrophotometrically at 37°C with a solution of L-DOPA to 0.2%. The data are normalized using a viability assay. Table 9: inhibition of melanogenese in the presence of the extract of Oxydendrum arboreum cell culture compared with control. (n=5)

tyrosinase = target: T1, tyrosinase (Homo sapiens, UniProt P14679); experiment: Tyrosinase (DOPA oxidase) activity extracted from human melanocytes; settings: positive control, concentration not given; 5 days of culture; n=5; p<0.01
T1 sequence (P14679 19-529): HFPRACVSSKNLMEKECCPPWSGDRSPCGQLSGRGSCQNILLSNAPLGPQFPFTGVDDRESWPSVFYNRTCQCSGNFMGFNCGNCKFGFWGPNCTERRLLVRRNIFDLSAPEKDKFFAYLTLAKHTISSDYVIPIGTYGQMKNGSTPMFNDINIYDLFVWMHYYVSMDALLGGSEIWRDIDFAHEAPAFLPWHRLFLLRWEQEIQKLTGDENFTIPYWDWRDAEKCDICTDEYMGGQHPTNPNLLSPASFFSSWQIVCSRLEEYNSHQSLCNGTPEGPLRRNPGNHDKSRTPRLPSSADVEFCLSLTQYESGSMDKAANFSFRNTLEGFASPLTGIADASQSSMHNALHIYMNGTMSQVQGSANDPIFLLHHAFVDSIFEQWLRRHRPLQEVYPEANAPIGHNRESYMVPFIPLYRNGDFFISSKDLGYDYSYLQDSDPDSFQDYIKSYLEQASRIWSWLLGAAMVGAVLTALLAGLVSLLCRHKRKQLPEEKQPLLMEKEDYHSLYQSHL

collagen I = experiment: Collagen I synthesis by normal human fibroblasts (immuno-labeling); settings: positive control, concentration not given; NHF, 7 days; p<0.01
Experimental: Normal human fibroblasts (NHF) are cultivated in plate MW24 for 24 hours. The cells are in contact or not of test products at various concentrations for 7 days. The synthesis of collagen I is then quantified by immuno-labeling fixed on the layer. Table 7: increase of collagen I on NHF in the presence of the extract of Oxydendrum arboretum cell culture compared with control. (n=4 wells/ 20 photos)

Tyrosinase (% Change / Control) (tyrosinase) [%]	SMILES	Melanin (% Change / Control) (Human melanocytes) [%]	Collagen I Synthesis % change / control (collagen I)
-48	OC[C@H]1O[C@@H](Oc2ccc(O)cc2)[C@H](O)[C@@H](O)[C@@H]1O [Arbutin]	-56	–
–	O=C1O[C@H]([C@@H](O)CO)C(O)=C1O [Vitamin C]	–	+236% ; p<0.01
